The nature of this data set: Human HepG2 cell viability assay in 384 well format. The data set is classed as toxicity, cell-based. As to conditions: HepG2 cells, read-out: Inhibition. Details: dose 125 nL, time 70.5 hour; cytotoxicity at 70.5 h: concentration not given beside the values.
Consider `CC(c1ccc2c(c1)OCCO2)N(C)C(=O)c1ccnnc1` (stereo not drawn), for which the cytotoxicity at 70.5 h is -5.69%. The result for `Cc1c(Br)cccc1C(=O)Nc1cc(C(N)=O)n(C)c1` reads -6.66%. As for `CC(C)n1ccc(CN2CCOC(CNc3cccnn3)C2)n1` (stereo not drawn), the figure is 3.22%.

Consider `CC(C)C(=O)NC1CCCN(C(=O)c2ccccc2O)C1` (stereo not drawn), for which the cytotoxicity at 70.5 h is -7.34%. The result for `O=C(Nc1ccc(OCc2cccc(F)c2)c(F)c1)C1COCCO1` (stereo not drawn) reads -3.19%. As for `COCCN(Cc1cnn(C)c1)Cc1ccc(C)o1`, the figure is -9.85%; as for `C1CC(NCc2nnc(C3CC3)o2)CN(Cc2noc(C3CC3)n2)C1` (stereo not drawn), -7.51%. As for `CCC(=O)c1ccc(OCC(=O)N2CCNCC2C(=O)NC2CC2)cc1` (stereo not drawn), the figure is -9.05%; as for `CCc1ncnc2c1CCN(S(=O)(=O)c1ccccc1)CC2`, 3.38%. Regarding `COC1CCN(C(=O)Cn2ncc(N3CCCCC3)cc2=O)C1` (stereo not drawn), the cytotoxicity at 70.5 h was -2.54%. The result for `CNC(=O)N1CC[C@@H]2CN(Cc3cccc(Cl)c3)S(=O)(=O)[C@@H]2CC1` reads -4.42%. As to `CC(C)S(=O)(=O)CCN1CCc2c(ncn2C2CC2)C1`, the cytotoxicity at 70.5 h was 3.39%. The result for `c1cnn(CCCO[C@@H]2CC[C@H]3[C@H]2OCCN3CC2CC2)c1` reads -7.2%.

For the compound `CCCN1CCCN(C(=O)c2oc(C)nc2C)CC1`, the cytotoxicity at 70.5 h was determined as 30.9%. As for `c1cc2nccc(CC3CCCN(Cc4ncc[nH]4)CC3)c2cn1` (stereo not drawn), the figure is -7.89%; as for `Cc1ccc(CN2CCC3(CC2)CCN(Cc2ccco2)CC3)cc1`, -6.1%; as for `Cc1ccc(C(=O)N2C[C@@H]3OCCN(C(C)C)[C@@H]3C2)cn1`, -11.3%. The result for `COc1c(C2CCCN2c2ncnc3sccc23)c(C)nn1C` (stereo not drawn) reads -2.24%.

Regarding `CN1[C@@H](c2ccccc2)[C@@H](C(=O)NCC2CCOCC2)C[C@@]1(C)C(=O)O`, the cytotoxicity at 70.5 h was -11.8%. Turning to `O=S1(=O)[C@@H](c2ccccc2)[C@H](CO)CN1C1CC1`, the cytotoxicity at 70.5 h was -1.65%.

As to `CC(NC1CCN(CCS(C)(=O)=O)CC1)c1cnn(C(C)C)c1` (stereo not drawn), the cytotoxicity at 70.5 h was -10.2%. As for `Cc1cc(C)n(-c2cncc(N3CCN(C(=O)CN(C)C)CC3)n2)n1`, the figure is -11.6%; as for `O=C(N[C@@H]1CN(C2CCCC2)C[C@@H]2CCCO[C@@H]21)c1cnccn1`, -12.5%. The result for `Cc1nnc(C(C)N2CCN(Cc3ccc(C(F)(F)F)cc3)CC2)o1` (stereo not drawn) reads -1.82%; that for `CC(C)n1ccnc1C1CCN(Cc2ccc(Cl)c(F)c2)CC1`, -5.05%. Turning to `CC(C)c1nnc(NC(=O)CSCc2cc(=O)n3ccccc3n2)s1`, the cytotoxicity at 70.5 h is -4.94%. As for `Cc1ncccc1Oc1ncnc(N2CCC3(CCCO3)CC2)c1C`, the figure is -7.69%; as for `COC(=O)c1cccn1C1CCN(C(=O)c2ccc(C)[nH]c2=O)CC1`, -5.32%; as for `COc1ccc(CC(=O)N2CCC(c3nnc4n3CCC4)CC2)cc1F`, -5.72%. The result for `CN1C(=O)CC(C(=O)O)C12CCN(Cc1ccc(F)c(Cl)c1)CC2` (stereo not drawn) reads 0.558%; that for `CCN1CC2(CCC1=O)CCN(Cc1nncn1C)CC2`, -5.87%; that for `Cc1ccsc1CNC1CCCN(Cc2noc(C3CC3)n2)C1` (stereo not drawn), -2.45%. For the compound `CC(NCc1ccc(OCC(N)=O)cc1)c1ccc(Cl)cc1` (stereo not drawn), the cytotoxicity at 70.5 h came to 15.5%. As for `Cc1cnn(CC2CCCN2C(=O)c2cc3ccccc3[nH]2)c1` (stereo not drawn), the figure is 8.1%; as for `Cc1csc(C2CCCN(C(=O)c3c[nH]c(C)n3)C2)n1` (stereo not drawn), -1.13%. As for `Cc1ccccc1-c1cc(C(=O)N2CCCC(n3ccnc3C)C2)[nH]n1` (stereo not drawn), the figure is 13.3%; as for `COc1c(Br)cccc1CCNC(=O)c1ccon1`, -10.8%. As for `O=C1CC(c2ccsc2)c2cnn(C3CCCC3)c2N1` (stereo not drawn), the figure is -9.93%; as for `Cc1nc(CN2CCCCC2CCc2ccc(O)cc2)no1` (stereo not drawn), 6.16%. With `CC(C)N(C)C(=O)c1ccc(CNc2ncc(C#N)cc2Cl)cc1`, the cytotoxicity at 70.5 h came out at 18.7%. The result for `CCCc1cc(N2CCC(Cc3cccc(C(N)=O)c3)C2)nc(C)n1` (stereo not drawn) reads -5.44%.

As for `CC(c1ccc(F)cc1F)N1CCN(Cc2nccn2C)CC1` (stereo not drawn), the cytotoxicity at 70.5 h was -0.0589%. The result for `Cc1cccc(CN2Cc3[nH]nc(COCC4CC4)c3C2)n1` reads 3.89%. As for `OCCCN1CCOC(c2ccc(F)cc2)C1` (stereo not drawn), the cytotoxicity at 70.5 h is -6.31%. As for `CC(=O)c1c(O)n(C)c2ccccc12`, the figure is 25.3%.

Consider `CCN1CCCC(O)(CN(C)Cc2ccccc2F)C1` (stereo not drawn), for which the cytotoxicity at 70.5 h is -9.61%. As for `Oc1cc(-c2nccs2)nc(C2CCN(Cc3cccs3)CC2)n1`, the figure is -8.93%; as for `O=C([C@H]1CCCO1)N1CCc2ncnc(NC3CC3)c2CC1`, -6.76%; as for `CC(=O)c1c(N(C)C)ccnc1C(F)(F)F`, -6.51%.

On to `Cn1c(CCC(=O)N2CCC3(CCCO3)CC2)nc2cccnc21`, for which the cytotoxicity at 70.5 h was -9.63%. Regarding `CC(C)CCNC(=O)c1ccc(Cl)c(NS(C)(=O)=O)c1`, the cytotoxicity at 70.5 h is -4.83%. As to `CC(C)c1noc(C2CCN(S(=O)(=O)c3cccs3)CC2)n1`, the cytotoxicity at 70.5 h was -0.463%. As for `CN(Cc1ccc(F)c(F)c1)Cc1cc2c(cc1Br)OCCO2`, the figure is -8.74%; as for `COCC(=O)Nc1ccc(Oc2ccsc2C(=O)O)cc1`, -6.01%; as for `CCN(CC)C(C)CNC(=O)c1cccnc1Oc1cccnc1` (stereo not drawn), -5.14%. Turning to `COc1ccc(/C=C/CN2C[C@H]3CC[C@@H]2CN(S(=O)(=O)N(C)C)C3)cc1`, the cytotoxicity at 70.5 h was -5.26%. As for `Cc1nonc1OCCNC(=O)COc1ccc(Cl)cc1Cl`, the figure is -13.9%; as for `Cc1ccc(CN2CCC3(CC2)CC(CC(=O)NC(C)C)CO3)s1` (stereo not drawn), -7.06%.

Consider `O=S(=O)(c1cn[nH]c1)N1C[C@@H](O)[C@H](N2CCc3ccccc3C2)C1`, for which the cytotoxicity at 70.5 h was -7.48%. As for `COc1ccnc(N2CCN(C(=O)Cc3ccn(C(C)C)n3)CC2)n1`, the figure is -5.11%; as for `CS(=O)(=O)N1CCC(c2ccncn2)CC1`, -10.9%. The result for `Cn1cc(CN2C[C@H]3CCC[C@@]3(COc3cccnc3)C2)cn1` reads -2.32%. As for `O=C(c1ccco1)N1CCc2ncc(CN3CCOCC3)n2CC1`, the figure is 18.7%; as for `COc1ccccc1C(=O)N1CC(=O)N(CC(C)C)CC(O)C1` (stereo not drawn), -1.35%; as for `Cn1cc(S(=O)(=O)NCc2ccsc2)cn1`, 13.8%. Take `CNC(=O)Nc1cc(-c2ccccc2C)nn1CCO`: the cytotoxicity at 70.5 h amounted to 21.1%. As for `c1cnc(N2CCN(C3CCC[C@@H]4CN(CC5CC5)C[C@H]34)CC2)nc1` (stereo partly drawn), the figure is -1.3%; as for `CC(=O)c1c(F)cccc1NCC(O)C1CC1` (stereo not drawn), -19.1%; as for `c1ccc(OCc2cscn2)c(CNC2CCc3ncnn3C2)c1` (stereo not drawn), -4.78%. Turning to `O=C1NCCCCC1SCc1coc(-c2cccc(F)c2)n1` (stereo not drawn), the cytotoxicity at 70.5 h was -5.82%. As for `Cc1cc(C(=O)NCCCn2nccc2C2CC2)c(=O)[nH]c1C`, the figure is -14.7%; as for `O=C(Nc1cccnc1)[C@@H]1C[C@H]2OCC[C@H]2N(Cc2nccs2)C1`, -6.06%; as for `Cc1cc(F)c2c(c1)CCCN2S(=O)(=O)c1ncn(C)c1Cl`, -0.387%. As to `Nc1nccc(N[C@H]2CN(CC(=O)NC3CCCCC3)C[C@@H]2C2CC2)n1`, the cytotoxicity at 70.5 h came out at 5.92%.

As to `Cc1nc2n(n1)CC(NCc1csc(-c3ccsc3)n1)CC2` (stereo not drawn), the cytotoxicity at 70.5 h is -8.64%. The result for `CN(C)C(=O)N1CCCC2(CCN(Cc3ccncc3)C2)C1` (stereo not drawn) reads -7.12%; that for `COc1cccc(C(O)Cn2ncc3ncccc3c2=O)c1` (stereo not drawn), -10.1%. As for `CCC(NC(=O)Nc1ccc(OC)c(C)c1)c1ccncc1` (stereo not drawn), the figure is -4.85%. `COc1ccc(OCCNC(=O)N2CCS(=O)(=O)CC2)cc1`: the cytotoxicity at 70.5 h is -7.97%. The result for `O=C(c1ccsc1)N1CCc2c(COCC3CC3)cncc2C1` reads 18.9%; that for `CC(=O)Nc1ccc(Cl)c(C(=O)N(C)C(C)c2ccon2)c1` (stereo not drawn), 5%. The result for `Cc1ccc(-c2noc([C@@H]3C[C@H](NC(=O)NC(C)C)CN3C)n2)cc1` reads -7.56%. The result for `CC(=O)Nc1nc(C(=O)N2CCCC(n3ccnc3)C2)cs1` (stereo not drawn) reads -0.488%; that for `CN(C)CCN1C[C@@H]2CN(C(=O)c3ccsc3)C[C@@H]2C1=O`, -2.41%. On to `CNc1oc(COc2ccc3c(c2)OCO3)nc1C#N`, for which the cytotoxicity at 70.5 h is -19.3%. As for `Cc1nc(NC(=O)c2ccc(-n3ncc(C#N)c3N)cc2)sc1C`, the figure is 17%.

Take `CC(C)n1ccnc1C1CCCN(c2ccccn2)C1` (stereo not drawn): the cytotoxicity at 70.5 h was -11.1%.

As to `O=C(NC[C@H]1CC[C@H](c2nnc(-c3cccnc3)o2)CC1)C1CC1`, the cytotoxicity at 70.5 h worked out at 6.18%. The result for `CC(=O)N1CCN(CCCSCc2ccccc2)CC1` reads 6.76%; that for `Cc1cc(C)n(CCC2CC(=O)Nc3cc4[nH]ncc4cc32)n1` (stereo not drawn), -6.11%. As for `O=C(CCc1ccncc1)N1CCc2c(ncnc2N2CCOCC2)C1`, the figure is 31.1%; as for `Cc1nc(C2CCCN(C(=O)c3ccc(Cn4cccn4)o3)C2)no1` (stereo not drawn), -12.8%; as for `Cc1nnc(N2CCOC(C)C2)c(C#N)c1C` (stereo not drawn), -8.59%. As for `COc1cc(OC)cc(-c2cc(CN)nc3ccnn23)c1`, the figure is -4.26%. With `Cc1ccc(CN2C[C@H](OCCN(C)C)[C@H]3OCCC[C@H]32)o1`, the cytotoxicity at 70.5 h came out at 3.05%. The result for `CCOC(=O)NC(CNC(=O)c1cc(Cl)ccn1)CC(C)C` (stereo not drawn) reads 5.7%; that for `COCCN1C(=O)CO[C@H]2CN(Cc3ccccc3OC)C[C@H]21`, -13.3%; that for `O=C(C1CC1)N1CCC(Nc2nc(O)cc(-c3ccsc3)n2)CC1`, -8.33%.

The record behind these values is ChEMBL document CHEMBL3507680, “University of Dundee, Gates Library screen for HepG2 cell viability”.
